For series [1], the system named is E. coli. In words: Bacterial growth curves (OD600, 24 h) for E. coli. The format is cell-based. The protocol:
Bacterial growth curves for E. coli for different concentrations of (free) PmB (MIC, 0.5 MIC, 0.25 MIC, and 0 MIC) are shown in FIG. 12 a). […] Absorbance at 600 nm (OD 600) was measured during a period of 24 h. […] Bacteria treated with 0.25 MIC behaved similarly. A lag phase was observed before the first exponential cycle after the addition of an intermediate concentration of 0.5 MIC, where exponential growth was delayed by ˜9 h. […] Growth curves for E. coli treated with varying concentrations of Erythro-PmBs containing MIC, 0.5 MIC, 0.25 MIC, and 0 MIC of PmB are shown in FIG. 12 b).

Series [2] relates to red blood cells. In words: Hemolytic assay (hemoglobin release by UV absorption). The format is cell-based. The conditions noted are these: PmB concentrations from 0 MIC to MIC. The protocol: 12% Triton X-100 was used as a total lysis control, and PBS was used as a negative control.
Hemolysis was determined from hemoglobin release measured by UV absorption. Data are shown for free PmB and Erythro-PmBs at different PmB concentrations from 0 MIC to MIC. Values in the order of 0.03% were determined to be well below the benchmark hemolysis rate of 2% identified by the American Society of Clinical Pathology and were considered to be non-hemolytic. […] Hemolytic activity of the Erythro-PmBs was less than that of free PmB, less than 0.01%, and independent of PmB concentration (within experimental error).

Series [3] concerns K. aerogenes. As to the kind of experiment: Bacterial growth curves (OD600, 24 h) for K. aerogenes. The format is cell-based, Klebsiella aerogenes. An excerpt:
The lengths of the lag phase decreased monotonously with decreasing PmB concentration, similar to E. coli.
Bacterial growth curves for K. aerogenes for different concentrations of (free) PmB (MIC, 0.5 MIC, 0.25 MIC, and 0 MIC) are shown in FIG. 13 a). […] Diauxic growth was less evident in the presence of free PmB: 0.25 MIC to MIC.

As for polymyxin B [free PmB], in series [1] (0.5 MIC), the “delay of exponential growth (lag phase)” value is listed as about 9 h. Moreover, the “minimum inhibitory concentration (MIC)” value in series [1] (OD600 over 24 h) worked out at 0.63 µg/mL; in series [3] (OD600 over 24 h), 1.5 µg/mL. In series [1] (PmB content at MIC (0.63 μg/mL)), the “growth at MIC” value was “No growth”. Also, in series [2], the hemolysis is listed as about 0.03%. Further, the lag phase in series [3] (0.25 MIC) is recorded as 6 h; in series [3] (0.5 MIC), 9 h.

Values taken from patent US20250041235A1, “FUNCTIONALIZED BIOLOGICAL MEMBRANES WITH MODIFYING PROTEIN MOLECULES, AND METHODS OF MAKING AND USES THEREOF” (McMaster University, priority 2021, published 2025).
